In PubChem BioAssay (NCI):
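Step 1: Grow cells in 96-well plates. Step 2: Expose to compound for 48 hours at 5 concentrations. Step 3: Interpolate endpoints linearly; if unreached, use highest concentration. Definition used: TGI = concentration required for complete inhibition of growth.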

Experiments:
Assay in all cases: NCI anticancer screen, dose series, 48 h
[1] = system: 786-0 renal
[2] = system: A498 renal
[3] = system: A549 NSCLC
[4] = system: ACHN renal
[5] = system: BT-549 breast
[6] = system: CAKI-1 renal
[7] = system: CCRF-CEM leukemia
[8] = system: COLO 205 colon
[9] = system: DU-145 prostate
[10] = system: EKVX NSCLC
[11] = system: HCC-2998 colon
[12] = system: HCT-116 colon
[13] = system: HCT-15 colon
[14] = system: HL-60(TB) leukemia
[15] = system: HOP-62 NSCLC
[16] = system: HS 578T breast
[17] = system: HT29 colon
[18] = system: IGROV1 ovarian
[19] = system: K-562 leukemia
[20] = system: KM12 colon
[21] = system: LOX IMVI melanoma
[22] = system: M14 melanoma
[23] = system: MALME-3M melanoma
[24] = system: MCF7 breast
[25] = system: MDA-MB-231 breast
[26] = system: MDA-MB-435
[27] = system: MDA-N
[28] = system: MOLT-4 leukemia
[29] = system: NCI-H226 lung
[30] = system: NCI-H23 lung
[31] = system: NCI-H460 lung
[32] = system: NCI-H522 lung
[33] = system: NCI/ADR-RES ovarian
[34] = system: OVCAR-3 ovarian
[35] = system: OVCAR-4 ovarian
[36] = system: OVCAR-5 ovarian
[37] = system: OVCAR-8 ovarian
[38] = system: PC-3 prostate
[39] = system: RPMI-8226 leukemia
[40] = system: SF-268 CNS
[41] = system: SF-295 CNS
[42] = system: SF-539 CNS
[43] = system: SK-MEL-2 melanoma
[44] = system: SK-MEL-28 melanoma
[45] = system: SK-MEL-5 melanoma
[46] = system: SK-OV-3 ovarian
[47] = system: SN12C renal
[48] = system: SNB-19 CNS
[49] = system: SNB-75 CNS
[50] = system: SR leukemia
[51] = system: SW-620 colon
[52] = system: T-47D breast
[53] = system: TK-10 renal
[54] = system: U251 CNS
[55] = system: UACC-257 melanoma
[56] = system: UACC-62 melanoma
[57] = system: UO-31 renal
[58] = system: HOP-92 NSCLC
[59] = system: RXF 393 renal

CC(=O)Nn1cnc(C(=N)C#N)c1N showed a TGI [1] greater than 100 µM, a TGI [2] greater than 100 µM and a TGI [3] greater than 100 µM. The TGI [4] was greater than 100 µM, the TGI [5] was greater than 100 µM and the TGI [6] was greater than 100 µM. The TGI [7] was greater than 100 µM, the TGI [8] was greater than 100 µM and the TGI [9] was greater than 100 µM. The TGI [10] was greater than 100 µM, the TGI [11] was greater than 100 µM and the TGI [12] was greater than 100 µM. It also gave a TGI [13] greater than 100 µM, a TGI [14] greater than 100 µM and a TGI [15] greater than 100 µM. The TGI [16] was greater than 100 µM, the TGI [17] was greater than 100 µM and the TGI [18] was greater than 100 µM. The TGI [19] was greater than 100 µM, the TGI [20] was greater than 100 µM and the TGI [21] was greater than 100 µM. It also gave a TGI [22] greater than 100 µM, a TGI [23] greater than 100 µM and a TGI [24] greater than 100 µM. For the same molecule, the TGI [25] was greater than 100 µM, the TGI [26] was greater than 100 µM and the TGI [27] was greater than 100 µM. The TGI [28] was greater than 100 µM, the TGI [29] was greater than 100 µM and the TGI [30] was greater than 100 µM. It also gave a TGI [31] greater than 100 µM, a TGI [32] greater than 100 µM and a TGI [33] greater than 100 µM. It also gave a TGI [34] greater than 100 µM, a TGI [35] greater than 100 µM and a TGI [36] greater than 100 µM. For the same molecule, the TGI [37] was greater than 100 µM, the TGI [38] was greater than 100 µM and the TGI [39] was greater than 100 µM. For the same molecule, the TGI [40] was greater than 100 µM, the TGI [41] was greater than 100 µM and the TGI [42] was greater than 100 µM. For the same molecule, the TGI [43] was greater than 100 µM, the TGI [44] was greater than 100 µM and the TGI [45] was greater than 100 µM. For the same molecule, the TGI [46] was greater than 100 µM, the TGI [47] was greater than 100 µM and the TGI [48] was greater than 100 µM. For the same molecule, the TGI [49] was greater than 100 µM, the TGI [50] was greater than 100 µM and the TGI [51] was greater than 100 µM. The TGI [52] was greater than 100 µM, the TGI [53] was greater than 100 µM and the TGI [54] was greater than 100 µM. It also gave a TGI [55] greater than 100 µM, a TGI [56] greater than 100 µM and a TGI [57] greater than 100 µM.
With CCCCc1nc(C)oc1C(C)C the TGI [1] was greater than 100 µM, the TGI [2] was greater than 100 µM and the TGI [3] was greater than 100 µM. It also gave a TGI [4] greater than 100 µM, a TGI [5] greater than 100 µM and a TGI [6] greater than 100 µM. For the same molecule, the TGI [7] was greater than 100 µM, the TGI [8] was greater than 100 µM and the TGI [9] was greater than 100 µM. The TGI [10] was greater than 100 µM, the TGI [11] was greater than 100 µM and the TGI [12] was greater than 100 µM. The TGI [13] was greater than 100 µM, the TGI [14] was greater than 100 µM and the TGI [15] was greater than 100 µM. For the same molecule, the TGI [58] was greater than 100 µM, the TGI [16] was greater than 100 µM and the TGI [17] was greater than 100 µM. For the same molecule, the TGI [18] was greater than 100 µM, the TGI [19] was greater than 100 µM and the TGI [20] was greater than 100 µM. The TGI [21] was greater than 100 µM, the TGI [22] was greater than 100 µM and the TGI [23] was greater than 100 µM. It also gave a TGI [24] greater than 100 µM, a TGI [25] greater than 100 µM and a TGI [26] greater than 100 µM. It also gave a TGI [27] greater than 100 µM, a TGI [28] greater than 100 µM and a TGI [29] greater than 100 µM. It also gave a TGI [30] greater than 100 µM, a TGI [31] greater than 100 µM and a TGI [32] greater than 100 µM. For the same molecule, the TGI [33] was greater than 100 µM, the TGI [34] was greater than 100 µM and the TGI [35] was greater than 100 µM. The TGI [36] was greater than 100 µM, the TGI [37] was greater than 100 µM and the TGI [38] was greater than 100 µM. The TGI [59] was greater than 100 µM, the TGI [40] was greater than 100 µM and the TGI [41] was greater than 100 µM. The TGI [42] was greater than 100 µM, the TGI [44] was greater than 100 µM and the TGI [45] was greater than 100 µM. It also gave a TGI [46] greater than 100 µM, a TGI [47] greater than 100 µM and a TGI [49] greater than 100 µM. The TGI [51] was greater than 100 µM, the TGI [52] was greater than 100 µM and the TGI [53] was greater than 100 µM. The TGI [54] was greater than 100 µM, the TGI [55] was greater than 100 µM and the TGI [56] was greater than 100 µM. The TGI [57] was greater than 100 µM.
COc1ccccc1/C=N/Nc1nnc2c3ccccc3c3ncccc3c2n1 gave a TGI [1] of 90.6 µM, a TGI [3] greater than 100 µM and a TGI [4] greater than 100 µM. The TGI [5] was greater than 100 µM, the TGI [6] was greater than 100 µM and the TGI [7] was 78 µM. It also gave a TGI [8] greater than 100 µM, a TGI [9] greater than 100 µM and a TGI [10] greater than 100 µM. The TGI [11] was greater than 100 µM, the TGI [12] was greater than 100 µM and the TGI [13] was greater than 100 µM. The TGI [14] was greater than 100 µM, the TGI [15] was 49.2 µM and the TGI [58] was 52.8 µM. It also gave a TGI [16] greater than 100 µM, a TGI [17] greater than 100 µM and a TGI [18] greater than 100 µM. It also gave a TGI [19] greater than 100 µM, a TGI [20] greater than 100 µM and a TGI [21] greater than 100 µM. It also gave a TGI [22] greater than 100 µM, a TGI [23] greater than 100 µM and a TGI [24] greater than 100 µM. For the same molecule, the TGI [25] was greater than 100 µM, the TGI [26] was greater than 100 µM and the TGI [27] was greater than 100 µM. It also gave a TGI [28] greater than 100 µM, a TGI [30] greater than 100 µM and a TGI [31] greater than 100 µM. For the same molecule, the TGI [32] was greater than 100 µM, the TGI [33] was greater than 100 µM and the TGI [34] was greater than 100 µM. It also gave a TGI [35] of 60.1 µM, a TGI [36] greater than 100 µM and a TGI [37] greater than 100 µM. For the same molecule, the TGI [38] was greater than 100 µM, the TGI [39] was greater than 100 µM and the TGI [59] was 55.6 µM. For the same molecule, the TGI [40] was greater than 100 µM, the TGI [41] was 31.8 µM and the TGI [42] was 76 µM. It also gave a TGI [43] greater than 100 µM, a TGI [44] greater than 100 µM and a TGI [45] greater than 100 µM. For the same molecule, the TGI [46] was greater than 100 µM, the TGI [47] was greater than 100 µM and the TGI [48] was greater than 100 µM. For the same molecule, the TGI [49] was 49.3 µM, the TGI [50] was greater than 100 µM and the TGI [51] was greater than 100 µM. It also gave a TGI [52] greater than 100 µM, a TGI [53] greater than 100 µM and a TGI [54] greater than 100 µM. It also gave a TGI [55] greater than 100 µM, a TGI [56] greater than 100 µM and a TGI [57] greater than 100 µM.
